Structures can show the parent of a compound that is named as a salt.
Tests used:
tumor = conditions: background, U.S. Pat. No. 4,166,810 and Conrad et al.; cited from earlier work
[1] = test system: Chinese hamster ovary cells; assay: standard mitotic inhibition test employing Chinese hamster ovary cells; type: cell-based
Description: The compounds of this invention are antimitotic compounds which adversely affects the growth of malignant cells. This activity is manifested in a standard mitotic inhibition test employing Chinese hamster ovary cells.

B16 melanoma = assay: transplanted tumors in mice: B16 melanoma; type: in vivo; conditions: intraperitoneal; for percent Prolongation of life (PL): * = 1 or more indefinite survivors
Experimental: (§1) The bases of this invention and their salts preparable by the processes disclosed herein are active in vivo against transplanted tumors in mice.
(§2) The following table--Table 1--gives the results of experiments in which mice bearing the susceptible transplanted tumor were treated with a compound of this invention. In the table, column 1 gives the name of the compound; column 2, the tumor used; column 3 the dosage; and column 4, the percent inhibition of tumor growth (I) or prolongation of life (PL). The following dosage regimens were employed: every day for 7 or 10 days after tumor inoculation; or every fourth day (three doses) starting at the third day after tumor inoculation.

P1534(J) = assay: transplanted tumors in mice: P1534(J) leukemia; type: in vivo; conditions: intraperitoneal
Experimental: as §1
The following table--Table 1--gives the results of experiments in which mice bearing the susceptible transplanted tumor were treated with a compound of this invention. In the table, column 1 gives the name of the compound; column 2, the tumor used; column 3 the dosage; and column 4, the percent inhibition of tumor growth (I) or prolongation of life (PL). […]

P388/V leukemia = assay: transplanted tumors in mice: P388/V leukemia; type: in vivo; conditions: dose and regimen not given, intraperitoneal
Experimental: as §1, §2

755 adenocarcinoma = assay: transplanted tumors in mice: 755 adenocarcinoma; type: in vivo; conditions: intraperitoneal
Experimental: as §1, §2

CC[C@]1(O)C[C@@H]2CN(CCc3c([nH]c4ccccc34)[C@@](C(=O)OC)(c3cc4c(cc3OC)N(C)[C@H]3[C@@](O)(C(N)=O)[C@H](O)[C@]5(CC)C=CCN6CC[C@]43[C@@H]65)C2)C1 [vindesine, 4-desacetyl VLB C-3 carboxamide]
anti-tumor activity (tumor): very active

4'-Acetylamino VLB
mitotic index ([1]; 2.0×10^-2 mcg/ml): + (15-25% inhibition)

CCC1(NC(C)=O)C[C@@H]2CN(CCc3c([nH]c4ccccc34)[C@@](C(=O)OC)(c3cc4c(cc3OC)N(C)[C@H]3[C@@](O)(C(=O)OC)[C@H](O)[C@]5(CC)C=CCN6CC[C@]43[C@@H]65)C2)C1 (some centres unmarked) [4'-acetylamino-4-desacetyl VLB]
Percent Inhibition (I) of tumor growth (B16 melanoma; 10 1.0 (regimen and dose mg/kg)): 58%
Percent Inhibition (I) of tumor growth (B16 melanoma; .5 mg/kg): 23%
Percent Inhibition (I) of tumor growth (B16 melanoma; .75 mg/kg): 44%
Percent Inhibition (I) of tumor growth (P1534(J); 9.5-1.0 mg/kg): 2-11%
inhibition at 2 µg/mL ([1]; Cricetulus griseus, CHO, read-out: mitotic index): 25 to 50%

CCC1(NC(C)=O)C[C@@H]2CN(CCc3c([nH]c4ccccc34)[C@@](C(=O)OC)(c3cc4c(cc3OC)N(C)[C@H]3[C@@](O)(C(=O)OC)[C@H](OC(C)=O)[C@]5(CC)C=CCN6CC[C@]43[C@@H]65)C2)C1 (some centres unmarked) [4'-acetylamino VLB sulfate]
indefinite survivors (B16 melanoma; 3 days, 1.5 mg/kg): * (1 or more indefinite survivors)
percent Prolongation of life (PL) (B16 melanoma; 3 days, 1.5 mg/kg): 120%
indefinite survivors (B16 melanoma; 3 days, 3 mg/kg): * (1 or more indefinite survivors)
percent Prolongation of life (PL) (B16 melanoma; 3 days, 3 mg/kg): 74-201%
indefinite survivors (B16 melanoma; .75 mg/kg): * (1 or more indefinite survivors)
percent Prolongation of life (PL) (B16 melanoma; .75 mg/kg): 119%
indefinite survivors (P388/V leukemia): * (1 or more indefinite survivors)
percent Prolongation of life (PL) (P388/V leukemia; * = 1 or more indefinite survivors): 20%
Percent Inhibition (I) of tumor growth (P1534(J); every third day, 5.0 mg/kg): 42%
Percent Inhibition (I) of tumor growth (P1534(J); every third day, 7.5 mg/kg): 71%
Percent Inhibition (I) of tumor growth (755 adenocarcinoma; 10 days, 1 mg/kg): 18%
Percent Inhibition (I) of tumor growth (755 adenocarcinoma; 10 days, .5 mg/kg): 30%
Percent Inhibition (I) of tumor growth (755 adenocarcinoma; 10 days, .75 mg/kg): 29%
Percent Inhibition (I) of tumor growth (755 adenocarcinoma; 11 days, 3 mg/kg): 57%
Percent Inhibition (I) or Prolongation (PL) column: toxicity (755 adenocarcinoma; 11 days, 6 mg/kg): Toxic
Percent Inhibition (I) of tumor growth (755 adenocarcinoma; 11 days, .5 mg/kg): 33%

Source: patent US4322351A (priority 1980, dated 1982)
